Structures are written as SMILES. pIC50: −log10 of the molar value.

What all share (assay type): cell-based
One assay deals with T1, human TLR9 (Homo sapiens, UniProt Q9NR96).
T1 construct: host or cells: HEK-Blue cells
T1 sequence (Q9NR96 26-1032): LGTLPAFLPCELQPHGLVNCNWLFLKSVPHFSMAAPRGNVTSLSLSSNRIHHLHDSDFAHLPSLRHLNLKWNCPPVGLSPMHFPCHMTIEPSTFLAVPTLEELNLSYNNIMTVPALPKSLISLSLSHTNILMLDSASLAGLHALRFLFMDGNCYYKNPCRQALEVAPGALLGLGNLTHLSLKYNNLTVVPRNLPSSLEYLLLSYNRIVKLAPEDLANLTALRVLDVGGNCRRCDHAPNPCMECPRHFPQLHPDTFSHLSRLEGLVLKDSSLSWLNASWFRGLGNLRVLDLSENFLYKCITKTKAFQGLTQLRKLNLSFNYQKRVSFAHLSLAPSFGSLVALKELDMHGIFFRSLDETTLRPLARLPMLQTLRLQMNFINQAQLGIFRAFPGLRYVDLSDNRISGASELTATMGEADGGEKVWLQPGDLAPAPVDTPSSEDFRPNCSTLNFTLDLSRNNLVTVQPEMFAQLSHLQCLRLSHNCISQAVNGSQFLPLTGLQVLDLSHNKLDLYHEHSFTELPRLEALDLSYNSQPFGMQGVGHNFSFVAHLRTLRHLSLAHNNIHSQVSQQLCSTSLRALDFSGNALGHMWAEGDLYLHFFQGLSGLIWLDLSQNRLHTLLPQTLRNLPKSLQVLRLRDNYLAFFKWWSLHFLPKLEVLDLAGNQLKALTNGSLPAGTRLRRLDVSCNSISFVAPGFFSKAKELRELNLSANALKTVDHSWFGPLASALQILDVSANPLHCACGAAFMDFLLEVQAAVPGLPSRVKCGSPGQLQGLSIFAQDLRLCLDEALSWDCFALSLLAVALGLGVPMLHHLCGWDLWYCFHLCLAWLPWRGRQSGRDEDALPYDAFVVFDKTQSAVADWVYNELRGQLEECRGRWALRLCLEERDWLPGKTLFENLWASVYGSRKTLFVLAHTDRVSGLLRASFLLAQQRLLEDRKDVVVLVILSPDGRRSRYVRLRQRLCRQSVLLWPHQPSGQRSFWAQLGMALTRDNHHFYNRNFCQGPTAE
In words: TLR9 inhibition reporter assay (HEK-Blue SEAP). Particulars: HEK-Blue cells overexpressing human TLR9, stimulated with ODN2006 5 nM, 22 hour incubation. A digest of the protocol: (§1)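 HEK-Blue cells overexpressing human TLR7, TLR8 or TLR9 with an NF-κB/AP-1-driven SEAP reporter were pre-treated 30 min at room temperature with compound (0.05 nM to 50 μM), then stimulated with gardiquimod 7.5 μM (TLR7), R848 15.9 μM (TLR8) or ODN2006 5 nM (TLR9). SEAP measured after 22 h at 37° C; inhibition normalized between agonist-plus-DMSO and reference-inhibitor wells.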

A further assay has as its target T2, human TLR8 (Homo sapiens, UniProt Q9NR97).
T2 construct: host or cells: HEK-Blue cells
T2 sequence (Q9NR97 27-1041): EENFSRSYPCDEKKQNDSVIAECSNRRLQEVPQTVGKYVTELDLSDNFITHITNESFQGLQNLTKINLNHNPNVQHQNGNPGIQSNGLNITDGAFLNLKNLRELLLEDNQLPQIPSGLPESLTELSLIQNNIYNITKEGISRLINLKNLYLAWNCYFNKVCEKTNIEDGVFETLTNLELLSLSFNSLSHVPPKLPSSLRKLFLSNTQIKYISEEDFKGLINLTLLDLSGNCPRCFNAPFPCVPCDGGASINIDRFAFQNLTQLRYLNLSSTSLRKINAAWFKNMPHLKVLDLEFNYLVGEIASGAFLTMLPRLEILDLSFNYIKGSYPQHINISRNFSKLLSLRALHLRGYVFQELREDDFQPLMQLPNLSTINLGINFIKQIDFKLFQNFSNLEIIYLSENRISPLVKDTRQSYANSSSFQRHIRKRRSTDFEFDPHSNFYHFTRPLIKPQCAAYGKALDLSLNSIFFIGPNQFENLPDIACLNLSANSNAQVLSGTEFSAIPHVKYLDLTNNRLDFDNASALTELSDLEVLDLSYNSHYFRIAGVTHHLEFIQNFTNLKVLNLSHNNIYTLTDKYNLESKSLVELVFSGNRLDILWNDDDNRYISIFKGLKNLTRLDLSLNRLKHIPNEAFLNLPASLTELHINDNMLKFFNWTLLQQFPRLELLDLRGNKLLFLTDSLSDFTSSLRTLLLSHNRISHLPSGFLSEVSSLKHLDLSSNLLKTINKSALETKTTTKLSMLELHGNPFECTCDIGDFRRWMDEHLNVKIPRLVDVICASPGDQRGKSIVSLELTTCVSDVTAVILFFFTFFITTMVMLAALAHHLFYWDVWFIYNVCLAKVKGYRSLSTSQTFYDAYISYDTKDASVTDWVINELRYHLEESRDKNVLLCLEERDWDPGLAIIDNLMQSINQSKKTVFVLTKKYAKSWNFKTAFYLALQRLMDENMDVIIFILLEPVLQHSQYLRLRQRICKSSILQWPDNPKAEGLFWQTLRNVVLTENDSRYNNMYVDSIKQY
Kind of assay: TLR8 inhibition reporter assay (HEK-Blue SEAP). The conditions noted are these: HEK-Blue cells overexpressing human TLR8, stimulated with R848 15.9 μM, 22 hour incubation. The method in brief: as §1
On the technique in general: Reporter assays use an easily measured gene product as a stand-in for the process of interest.

The target of another assay is T3, human TLR7 (Homo sapiens, UniProt Q9NYK1).
T3 construct: host or cells: HEK-Blue cells
T3 sequence (Q9NYK1 27-1049): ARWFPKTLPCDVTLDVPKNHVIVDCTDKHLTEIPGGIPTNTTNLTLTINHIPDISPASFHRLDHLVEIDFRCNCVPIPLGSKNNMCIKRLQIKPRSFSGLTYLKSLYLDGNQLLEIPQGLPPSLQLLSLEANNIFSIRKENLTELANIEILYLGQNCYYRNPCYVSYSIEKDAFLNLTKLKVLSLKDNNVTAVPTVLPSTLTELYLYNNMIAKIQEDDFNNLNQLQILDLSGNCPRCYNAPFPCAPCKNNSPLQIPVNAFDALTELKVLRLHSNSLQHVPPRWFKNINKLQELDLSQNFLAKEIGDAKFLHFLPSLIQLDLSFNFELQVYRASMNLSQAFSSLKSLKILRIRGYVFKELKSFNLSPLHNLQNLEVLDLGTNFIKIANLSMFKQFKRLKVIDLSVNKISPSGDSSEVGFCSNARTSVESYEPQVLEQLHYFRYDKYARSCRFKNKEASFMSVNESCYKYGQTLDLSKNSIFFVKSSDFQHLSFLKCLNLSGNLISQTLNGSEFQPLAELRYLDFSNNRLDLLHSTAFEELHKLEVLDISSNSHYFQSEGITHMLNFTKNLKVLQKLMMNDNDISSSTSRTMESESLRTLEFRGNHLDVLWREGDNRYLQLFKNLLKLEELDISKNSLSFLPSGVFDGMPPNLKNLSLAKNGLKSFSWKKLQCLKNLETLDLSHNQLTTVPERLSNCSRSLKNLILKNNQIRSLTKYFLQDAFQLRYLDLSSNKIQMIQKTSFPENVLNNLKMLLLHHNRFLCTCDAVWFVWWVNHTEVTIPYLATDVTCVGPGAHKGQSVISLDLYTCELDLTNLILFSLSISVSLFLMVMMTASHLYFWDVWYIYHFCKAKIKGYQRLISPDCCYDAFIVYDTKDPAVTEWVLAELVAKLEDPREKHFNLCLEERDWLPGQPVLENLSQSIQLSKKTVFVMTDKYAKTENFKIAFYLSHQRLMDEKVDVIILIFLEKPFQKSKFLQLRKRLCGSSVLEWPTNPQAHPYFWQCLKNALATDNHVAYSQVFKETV
In words: TLR7 inhibition reporter assay (HEK-Blue SEAP). The conditions noted are these: HEK-Blue cells overexpressing human TLR7, stimulated with gardiquimod 7.5 μM, 22 hour incubation. The method in brief:
as §1

A word on the pIC50: it is the negative decadic logarithm of the IC50, by convention in mol/L. As for `Cc1cc(-c2cc3[nH]nc(C4CCC(NCC(=O)N(C)C)CC4)c3cc2C(C)C)cn2ncnc12` (single isomer, unassigned) [Example 125, 2-((4-(5-isopropyl-6-(8-methyl-[1,2,4]triazolo[1,5-a]pyridin-6-yl)-1H-indazol-3-yl)cyclohexyl)amino)-N,N-dimethylacetamide], the pIC50 is 4.92 on human TLR9, 9.52 at human TLR8 and 8.60 against human TLR7.

For `Cc1cc(-c2cc3[nH]nc(C4CCC(N5CC6(COC6)C5)CC4)c3cc2C(C)C)cn2ncnc12` (single isomer, unassigned) [Example 128, 6-(4-(5-isopropyl-6-(8-methyl-[1,2,4]triazolo[1,5-a]pyridin-6-yl)-1H-indazol-3-yl)cyclohexyl)-2-oxa-6-azaspiro[3.3]heptane], the negative logarithm of the IC50 (pIC50) on human TLR9 was 5.02; against human TLR8, 9.70; at human TLR7, 9.22.

As to `Cc1cc(-c2cc3[nH]nc(C4CCC(N5CC6(COC6)C5)CC4)c3cc2C(C)C)cn2ncnc12` (single isomer, unassigned) [Example 129, 6-(4-(5-isopropyl-6-(8-methyl-[1,2,4]triazolo[1,5-a]pyridin-6-yl)-1H-indazol-3-yl)cyclohexyl)-2-oxa-6-azaspiro[3.3]heptane], the values for the pIC50 against human TLR9, on human TLR8 and against human TLR7 were 5.12, 9.30 and 8.39, respectively.

Regarding `Cc1cc(-c2cc3[nH]nc(C4CCC(N5CCCC5)CC4)c3cc2C(C)C)cn2ncnc12` (single isomer, unassigned) [Example 130, 6-(5-isopropyl-3-(4-(pyrrolidin-1-yl)cyclohexyl)-1H-indazol-6-yl)-8-methyl-[1,2,4]triazolo[1,5-a]pyridine], the pIC50 against human TLR9 is 5.38; on human TLR8, 10.00; against human TLR7 it was 9.70.

Regarding `Cc1cc(-c2cc3[nH]nc(C4CCC(N5CCCC5)CC4)c3cc2C(C)C)cn2ncnc12` (single isomer, unassigned) [Example 131, 6-(5-isopropyl-3-(4-(pyrrolidin-1-yl)cyclohexyl)-1H-indazol-6-yl)-8-methyl-[1,2,4]triazolo[1,5-a]pyridine], the pIC50 is 5.34 against human TLR9, 9.52 on human TLR8 and 8.70 at human TLR7.

Turning to `Cc1cc(-c2cc3[nH]nc(C4CCC(N5CC(F)(F)C5)CC4)c3cc2C(C)C)cn2ncnc12` (single isomer, unassigned) [Example 134, 6-(3-(4-(3,3-difluoroazetidin-1-yl)cyclohexyl)-5-isopropyl-1H-indazol-6-yl)-8-methyl-[1,2,4]triazolo[1,5-a]pyridine], the pIC50 against human TLR9 is 4.80; on human TLR8, 9.70; on human TLR7 it was 8.60.

Take `Cc1cc(-c2cc3[nH]nc(C4CCC(N5CC(F)(F)C5)CC4)c3cc2C(C)C)cn2ncnc12` (single isomer, unassigned) [Example 135, 6-(3-(4-(3,3-difluoroazetidin-1-yl)cyclohexyl)-5-isopropyl-1H-indazol-6-yl)-8-methyl-[1,2,4]triazolo[1,5-a]pyridine]: the results for the pIC50 against human TLR9, against human TLR8 and at human TLR7 were 4.72, 8.03 and 7.81, respectively.

`Cc1cc(-c2cc3[nH]nc(C4CCC(N5CC(C)(C)C5)CC4)c3cc2C(C)C)cn2ncnc12` (single isomer, unassigned) [Example 136, 6-(3-(4-(3,3-dimethylazetidin-1-yl)cyclohexyl)-5-isopropyl-1H-indazol-6-yl)-8-methyl-[1,2,4]triazolo[1,5-a]pyridine]: the negative logarithm of the IC50 (pIC50) against human TLR9 is 5.31; at human TLR8 it was 8.41; against human TLR7, 7.58.

Regarding `Cc1cc(-c2cc3[nH]nc(C4CCC(N5CC(C)(C)C5)CC4)c3cc2C(C)C)cn2ncnc12` (single isomer, unassigned) [Example 137, 6-(3-(4-(3,3-dimethylazetidin-1-yl)cyclohexyl)-5-isopropyl-1H-indazol-6-yl)-8-methyl-[1,2,4]triazolo[1,5-a]pyridine], the values for the pIC50 at human TLR9, against human TLR8 and against human TLR7 were 5.06, 9.22 and 8.26, respectively.

For `Cc1cc(-c2cc3[nH]nc(C4CCC(N5CCC5)CC4)c3cc2C(C)C)cn2ncnc12` (single isomer, unassigned) [Example 138, 6-(3-(4-(azetidin-1-yl)cyclohexyl)-5-isopropyl-1H-indazol-6-yl)-8-methyl-[1,2,4]triazolo[1,5-a]pyridine], the negative logarithm of the IC50 (pIC50) against human TLR9 was 5.23; against human TLR8, 9.30; at human TLR7, 9.00.

For `Cc1cc(-c2cc3[nH]nc(C4CCC(N5CCC5)CC4)c3cc2C(C)C)cn2ncnc12` (single isomer, unassigned) [Example 139, 6-(3-(4-(azetidin-1-yl)cyclohexyl)-5-isopropyl-1H-indazol-6-yl)-8-methyl-[1,2,4]triazolo[1,5-a]pyridine], the figures for the pIC50 on human TLR9, against human TLR8 and at human TLR7 were 5.20, 10.00 and 8.92, respectively.

These data come from patent US12172995B2, “Substituted indole and indazole compounds” (BRISTOL-MYERS SQUIBB COMPANY, priority 2018, dated 2024).
